Source: patent US9808528B2, “Protein-polymer-drug conjugates and methods of using same” (priority 2014, dated 2017)
Values joined by “and” are separate entries in the source; they are usually repeats but may differ in a detail not shown here. Equal entries are not always repeated.

Key:
N87 = assay: Cell viability assay (Cell Titer-Glo); format: cell-based; details: 72 h incubation; AF-HPA as toxin equivalents
Method: (§1) PBRM-polymer-drug conjugates were evaluated for their antiproliferation properties in tumor cell lines in vitro using Cell Titer-Glo (Promega Corp). Cells were plated in black walled 96-well plate and allowed to adhere overnight at 37° C. in a humidified atmosphere of 5% CO2. SKBR3, BT474, NCI-N87 cells (HER2 expressing cells), MCF7 cells (HER2 low expressing levels cells) and JIMT1 cells (HER2 medium expression level cells) were plated at a density of 5,000 cells per well. The next day the medium was replaced with 50 μL fresh medium and 50 μL of 2× stocks of PBRM-polymer-drug conjugate, drug polymer conjugate or drug were added to appropriate wells, mixed and incubated for 72 h. Cell Titer-Glo reagent was added to the wells at room temperature and the luminescent signal was measured after 10 min using a SpectraMax M5 plate reader (Molecular Devices). Dose response curves were generated using SoftMax Pro software. IC50 values were determined from four-parameter curve fitting.

hErbB2 = hErbB2 (Homo sapiens, UniProt P04626); assay: Ligand binding studies by BIAcore surface plasmon resonance (SPR); details: 25° C.; immobilized hErbB2; BioRad ProteOn XPR36
Method: The kinetic binding of the PBRM-polymer-drug conjugate to an immobilized receptor is determined by BIAcore SPR. The binding constants for the PBRM in the PBRM-polymer-drug conjugate and PBRM alone can be determined using standard BIAcore procedures.
The kinetic binding of the PBRM-polymer-drug conjugate to an immobilized receptor was determined by BIAcore SPR.

SKBR3 = assay: Cell viability assay (Cell Titer-Glo); format: cell-based; details: 72 h incubation; AF-HPA as toxin equivalents
Method: as §1

JIMT1 = assay: Cell viability assay (Cell Titer-Glo); format: cell-based; details: 72 h incubation; HER2 medium expression level cells; AF-HPA as toxin equivalents
Method: as §1

BT474 [1] = assay: Cell viability assay (Cell Titer-Glo); format: cell-based, human; details: 72 h incubation; AF-HPA as toxin equivalents
Method: as §1

MCF7 = assay: Cell viability assay (Cell Titer-Glo); format: cell-based; details: 72 h incubation; HER2 low expressing cells; AF-HPA as toxin equivalents
Method: as §1

JIMT-1 = details: read-out: IC50 JIMT-1; HER2 molecules per cell 80,000; Her2 expression 2+; 72 hours or 6 days
JIMT-1 cells = assay: Tumor growth response, JIMT-1 xenograft; format: in vivo, mice
Method: Female CB-17 SCID mice were inoculated subcutaneously with BT474 tumor fragments (n=10 for each group) or JIMT-1 cells (n=10 for each group) or NCI-N87 cells (n=10 for each group). […] Test compounds or vehicle were dosed IV as a single dose on day 1. Tumor size was measured at the times indicated in FIGS. 1 to 6 using digital calipers. Tumor volume was calculated and was used to determine the delay in tumor growth. Mice were sacrificed when tumors reached a size of 800 to 1500 mm^3. Tumor volumes are reported as the mean±SEM (“standard error of mean”) for each group.

NCI-H1581 = assay: Cytotoxicity assay (CellTiter-Glo); format: cell-based; details: HER2 molecules per cell 13,000; Her2 expression 1+; 72 hours or 6 days
Method: (§2) NCI-H1581 (non-small cell lung carcinoma medium expressing cell line, not amplified, ATCC, Cat.# CRL-5878) cells were cultured in DMEM:F12 medium (ATCC, Cat#30-2006). […] CALU3 (human lung adenocarcinoma cell line, ATCC, Cat# HTB-55) was cultured in ATCC-formulated Eagle's Minimum Essential Medium. […] NCI-H2122 (human lung adenocarcinoma cell line, not amplified, ATCC, Cat# CRL-5985) was cultured in RPMI-1640 Medium, (ATCC, Cat#30-2001).
(§3) For the cytotoxicity assay, cells were seeded at a density of 3000 cells per well in 96 well plates and allowed to attach during overnight incubation at 37° C. in the presence of 5% CO2.

NCI-H2170 = assay: Cytotoxicity assay (CellTiter-Glo); format: cell-based; details: HER2 molecules per cell 660,000; Her2 expression 3+; 72 hours or 6 days
Method: as §2, §3

HCC38 = assay: Cytotoxicity assay (CellTiter-Glo); format: cell-based, human; details: HER2 molecules per cell 36,000; Her2 expression 2+; 72 hours or 6 days
Method: (§4) ZR75-1 (human breast cancer cell line, not amplified, ATCC, Cat.# CRL-1500), was cultured in RPMI-1640 Medium. HCC1187 (human breast cancer cell line, not amplified, ATCC, Cat.# CRL-2322), was cultured in RPMI-1640 Medium. HCC38 (human breast cancer cell line, not amplified, ATCC, Cat.# CRL-2314), was cultured in RPMI-1640 Medium. T47D (human breast cancer cell line, not amplified, ATCC, Cat.# HTB-133), was cultured in RPMI-1640 Medium. MDA-MB-231 (human breast cancer cell line, not amplified, ATCC, Cat.# HTB-26), was cultured in DMEM Medium.
as §3

ZR75-1 = assay: Cytotoxicity assay (CellTiter-Glo); format: cell-based, human; details: HER2 molecules per cell 40,000; Her2 expression 1+; 72 hours or 6 days
Method: as §4, §3

NCI-H522 = assay: Cytotoxicity assay (CellTiter-Glo); format: cell-based; details: HER2 molecules per cell 25,000; Her2 expression 1+; 72 hours or 6 days
Method: as §2, §3

MDA-MB-231 = assay: Cytotoxicity assay (CellTiter-Glo); format: cell-based, human; details: HER2 molecules per cell 5400; Her2 expression 1+; 72 hours or 6 days
Method: as §4, §3

MKN45 = assay: Cytotoxicity assay (CellTiter-Glo); format: cell-based, human; details: HER2 molecules per cell 16,000; Her2 expression 1+; 72 hours or 6 days
Method: (§5) OVCAR3 (ovarian adenocarcinoma, not amplified, ATCC, Cat# HTB-161) was cultured in RPMI medium with 20% FBS. […] MKN-45 III (human gastric adenocarcinoma cell line, not amplified, DSMZ, Braunschweig, Germany, Cat.# ACC409) was cultured in RPMI-1640 Medium, (ATCC, Cat#30-2001). SKOV3 (human ovary adenocarcinoma cell line ATCC, Cat.# HTB-77), was cultured in McCoy's 5a Medium.
as §3

OVCAR3 = assay: Cytotoxicity assay (CellTiter-Glo); format: cell-based; details: HER2 molecules per cell 7,200; Her2 expression 1+; 72 hours or 6 days
Method: as §5, §3

CAMA-1 = assay: Cytotoxicity assay (CellTiter-Glo); format: cell-based, human; details: HER2 molecules per cell 50,000; Her2 expression 1+; 72 hours or 6 days
Method: (§6) MDA-MB-175-VII (human breast cancer cell line, not amplified, ATCC, Cat.# HTB-25), was cultured in Leibovitz's L-15 Medium with 20% FBS. CAMA-1 (human breast cancer cell line, not amplified, ATCC, Cat.# HTB-21), was cultured in 90% ATCC-formulated Eagle's Minimum Essential Medium.
as §3

HCC1187 = assay: Cytotoxicity assay (CellTiter-Glo); format: cell-based, human; details: HER2 molecules per cell 38,000; Her2 expression 2+; 72 hours or 6 days
Method: as §4, §3

MDA-MB-361 = assay: Cytotoxicity assay (CellTiter-Glo); format: cell-based, human; details: HER2 molecules per cell 135,000; Her2 expression 2+; 72 hours or 6 days
Method: as §6, §3

MDA-MB-453 = assay: Cytotoxicity assay (CellTiter-Glo); format: cell-based; details: HER2 molecules per cell 125,000; Her2 expression 2+; 72 hours or 6 days
TOV21G = assay: Cytotoxicity assay (CellTiter-Glo); format: cell-based, human; details: HER2 molecules per cell 12,000; Her2 expression 1+; 72 hours or 6 days
Method: as §5, §3

A549 = assay: Cytotoxicity assay (CellTiter-Glo); format: cell-based, human; details: HER2 molecules per cell 6,000; Her2 expression 1+; 72 hours or 6 days
Method: (§7) A549 (human lung carcinoma cell line, not amplified, ATCC, Cat# CCL-185) was cultured in F12K Medium. […] NCI-H460 (human lung carcinoma cell line, not amplified, ATCC, Cat.# HTB-177) was cultured in RPMI-1640 Medium, (ATCC, Cat.#30-2001). SHP-77 (human small cell lung cancer cell line, not amplified, ATCC, Cat.# CRL-2195) was cultured in RPMI-1640 Medium, (ATCC, Cat#30-2001).
as §3

SNU5 = assay: Cytotoxicity assay (CellTiter-Glo); format: cell-based; details: HER2 molecules per cell 22,000; Her2 expression 1+; 72 hours or 6 days
Method: as §7, §3

KATOIII = assay: Cytotoxicity assay (CellTiter-Glo); format: cell-based, human; details: HER2 molecules per cell 19,000; Her2 expression 1+; 72 hours or 6 days
Method: as §7, §3

NCI-H2122 = assay: Cytotoxicity assay (CellTiter-Glo); format: cell-based, human; details: HER2 molecules per cell 12,000; Her2 expression 1+; 72 hours or 6 days
Method: as §2, §3

CALU3 = assay: Cytotoxicity assay (CellTiter-Glo); format: cell-based, human; details: HER2 molecules per cell 330,000; Her2 expression 3+; 72 hours or 6 days
Method: as §2, §3

MDA-MB-175VII = assay: Cytotoxicity assay (CellTiter-Glo); format: cell-based, human; details: read-out: IC50 MDA-MB-175VII; HER2 molecules per cell 51,000; Her2 expression 1+; 72 hours or 6 days
Method: as §6, §3

SKOV3 = assay: Cytotoxicity assay (CellTiter-Glo); format: cell-based, human; details: HER2 molecules per cell 220,000; Her2 expression 3+; 72 hours or 6 days
Method: as §5, §3

T47D = assay: Cytotoxicity assay (CellTiter-Glo); format: cell-based, human; details: HER2 molecules per cell 20,000; Her2 expression 1+; 72 hours or 6 days
Method: as §4, §3

BT474 [2] = assay: Cytotoxicity assay (CellTiter-Glo); format: cell-based, human; details: HER2 molecules per cell 860,000; Her2 expression 3+; 72 hours or 6 days
Method: as §5, §3

NCI-H460 = assay: Cytotoxicity assay (CellTiter-Glo); format: cell-based, human; details: HER2 molecules per cell 4,000; Her2 expression 1+; 72 hours or 6 days
Method: as §7, §3

NCI-N87 = assay: Cytotoxicity assay (CellTiter-Glo); format: cell-based; details: HER2 molecules per cell 700,000; Her2 expression 3+; 72 hours or 6 days
Method: as §3

SHP-77 = assay: Cytotoxicity assay (CellTiter-Glo); format: cell-based, human; details: HER2 molecules per cell 0; 72 hours or 6 days
Method: as §7, §3

HL-60 cells = assay: Tumor growth response, HL-60 xenograft; format: in vivo, mice; details: single IV dose day 1; 20 mg/kg
Method: Female NCr nu/nu mice were inoculated subcutaneously with HL-60 cells (n=10 for each group). Test compounds or vehicle were dosed IV as a single dose on day 1. Tumor size was measured at the times indicated in FIGS. 1 to 6 using digital calipers. Tumor volume was calculated and was used to determine the delay in tumor growth. Mice were sacrificed when tumors reached a size of 800 to 1500 mm^3. Tumor volumes are reported as the mean±SEM (“standard error of mean”) for each group.
Female NCr nu/nu mice were inoculated subcutaneously with HL-60 cells (n=10 for each group). Test compounds or vehicle were dosed IV as a single dose on day 1. Tumor size was measured at the times indicated in FIG. 3 using digital calipers. Tumor volume was calculated and was used to determine the delay in tumor growth. Mice were sacrificed when tumors reached a size of 2000 mm^3. Tumor volumes are reported as the mean±SEM for each group.

For “Trastuzumab-((EG2-MI (2%)-(10 kDa PHF-BA (28%)-(AF-HPA-Ala (9%) [Example 17]”, the IC50 (N87) was 0.43 nM, the “ka (association or affinity rate constant)” value (from here on “ka”) (hErbB2) was 8.30 ± 0.2 × 10^5 M^−1s^−1 and the “kd (dissociation rate constant)” value (hErbB2) was 2.32 ± 0.2 × 10^−5 s^−1. The IC50 (SKBR3) was 0.03 nM, the IC50 (JIMT1) was 0.06 nM and the IC50 (BT474 [1]) was 0.03 nM. For the same substance, the IC50 (MCF7) was 28.8 nM and the IC50 (JIMT-1) was 0.3 nM.

For “Trastuzumab-((EG2-MI (2%)-(10 kDa PHF-BA (28%)-(AF-HPA-Ala (9%) [Example 18A]”, the IC50 (N87) was 0.06 nM, the “ka” value (hErbB2) was 4.67 ± 0.7 × 10^5 M^−1s^−1 and the “kd (dissociation rate constant)” value (hErbB2) was 2.07 ± 0.2 × 10^−5 s^−1. The IC50 (SKBR3) was 0.02 nM, the IC50 (JIMT1) was 0.16 nM and the IC50 (BT474 [1]) was 0.04 nM. It also gave an IC50 (MCF7) of 9.6 nM.

With “Trastuzumab-((EG2-MI (2%)-(10 kDa PHF-BA (28%)-(AF-HPA-Ala (9%) [Example 18B]” the IC50 (N87) was 0.04 nM, the “ka” value (hErbB2) was 3.05 ± 0.2 × 10^5 M^−1s^−1 and the “kd (dissociation rate constant)” value (hErbB2) was 2.46 ± 0.1 × 10^−5 s^−1. The IC50 (SKBR3) was 0.01 nM, the IC50 (JIMT1) was 0.12 nM and the IC50 (BT474 [1]) was 0.05 nM. The IC50 (MCF7) was 33 nM.

In the case of “Trastuzumab-((EG2-MI (2%)-(10 kDa PHF-BA (28%)-(AF-HPA-Ala (9%) [Example 18C]”, the IC50 (N87) is reported as 0.06 nM, the “ka” value (hErbB2) is reported as 4.25 ± 0.5 × 10^5 M^−1s^−1 and the “kd (dissociation rate constant)” value (hErbB2) is reported as 2.03 ± 0.1 × 10^−5 s^−1. The IC50 (SKBR3) was 0.02 nM, the IC50 (JIMT1) was 0.18 nM and the IC50 (BT474 [1]) was 0.03 nM. It also gave an IC50 (MCF7) of 3.8 nM.

In the case of “Trastuzumab-((EG2-MI (2.5%)-(10 kDa PHF-BA (28%)-(AF-HPA-Ala (8.4%) [Example 10]”, the “regressions, FIG. 4B” value (JIMT-1 cells; 2.0 mg/kg single IV dose) is reported as 100%, the “tumor free survival at the end of the study, FIG. 4B” value (JIMT-1 cells; 2.0 mg/kg single IV dose) is reported as “all of which remained tumor free survival” and the “tumor volume response (in words), FIG. 4B” value (JIMT-1 cells; 2 mg/kg single dose or […] weekly for 3 weeks, IV) is reported as “reduction of tumor volume”.

For ado-trastuzumab emtansine [Kadcyla], the IC50 (NCI-H1581) was about 100 nM, the IC50 (NCI-H2170) was 0.4 nM and the IC50 (HCC38) was over 100 nM. For the same substance, the IC50 (ZR75-1) was over 100 nM, the IC50 (NCI-H522) was about 100 nM and the IC50 (MDA-MB-231) was 27 nM. It also gave an IC50 (MKN45) of over 100 nM, an IC50 (OVCAR3) of about 85 nM and an IC50 (CAMA-1) of 7.8 nM. The IC50 (HCC1187) was 30 nM, the IC50 (MDA-MB-361) was 0.27 nM and 0.33 nM and the IC50 (MDA-MB-453) was about 100 nM. The IC50 (TOV21G) was over 100 nM, the IC50 (A549) was over 100 nM and the IC50 (N87) was 0.09 nM. The “ka” value (hErbB2) was 4.61 ± 0.2 × 10^5 M^−1s^−1, the “kd (dissociation rate constant)” value (hErbB2) was 3.17 ± 0.9 × 10^−5 s^−1 and the IC50 (SKBR3) was 0.23 nM. The IC50 (SNU5) was about 100 nM, the IC50 (JIMT1) was 18 nM and the IC50 (KATOIII) was over 100 nM. It also gave an IC50 (BT474 [1]) of 2.4 nM, an IC50 (NCI-H2122) of 19 nM and an IC50 (CALU3) of over 100 nM. It also gave an IC50 (MDA-MB-175VII) of 1.2 nM, an IC50 (SKOV3) of 5.6 nM and an IC50 (MCF7) of 38.6 nM. For the same substance, the IC50 (T47D) was 82.3 nM, the “tumor volume response (in words), FIG. 4A” value (JIMT-1 cells; single IV dose day 1, Example 14 at 2, 0.67 and 0.3 mg/kg, trastuzumab 20 mg/kg, Kadcyla 20 mg/kg) was “increase of tumor volume” and the “tumor volume response (in words), FIG. 2” value (JIMT-1 cells; single IV dose day 1, conjugates […], trastuzumab 10 mg/kg, Kadcyla 10 mg/kg) was “increase of tumor volume”. For the same substance, the IC50 (BT474 [2]) was 1.3 nM, the IC50 (NCI-H460) was 68 nM and the IC50 (NCI-N87) was 0.3 nM. The IC50 (JIMT-1) was 17.5 nM and the IC50 (SHP-77) was over 100 nM.

With lintuzumab the “tumor volume response (in words), FIG. 3” value (HL-60 cells) was “increase of tumor volume”.
